# Where two headings read alike, the source gives them in different places.
# What was measured:
# [1] = solubility compared to carvedilol base
# [2] = stability compared to carvedilol base; assay type: physicochemical; conditions: color of final product, phosphate sesquihydrate
# [3] = compared to the free base of carvedilol; disclosed in WO 2004/002419; cited from earlier work
SMILES,solubility [1],stability [2],solubility [3]
COc1ccccc1OCCNCC(O)COc1cccc2[nH]c3ccccc3c12.O=P(O)(O)O (stereo not drawn) [carvedilol dihydrogen phosphate sesquihydrate],Better solubility as compared to carvedilol base,More stable as compared to carvedilol base,–
"COc1ccccc1OCCNCC(O)COc1cccc2[nH]c3ccccc3c12.O=P(O)(O)O (stereo not drawn) [carvedilol dihydrogen phosphate, Carvedilol dihydrogen phosphate]",–,–,higher solubility when compared to the free base of carvedilol

# Reference: patent US8344159B2, “Carvedilol phosphate sesquihydrate” (priority 2006, dated 2013)
